Literature values as cited in paper PMC7395068, “The evolution of strategies to minimise the risk of human drug-induced liver injury (DILI) in drug discovery and development” (Archives of Toxicology, 2020).
Where two headings read alike, the source gives them in different places.

Columns and labels:
HepG2 cells [1] = details: cited from earlier work
[2] = cited from earlier work
human hepatocytes = details: In vitro Assay; ref Xu 2008; cited from earlier work
[3] = cited from earlier work; remark: listed apart in the source
[4] = system: THLE or HepG2 cells, isolated mitochondria, BSEP; details: cited from earlier work
HepG2 cells [5] = details: cited from earlier work; remark: listed apart in the source
HepG2 cells [6] = details: In vitro Assay; ref Persson 2013; cited from earlier work
[7] = system: isolated mouse liver mitochondria; details: In vitro Assay; ref Porceddu 2012; cited from earlier work
PHH = details: In vitro Assay; ref Proctor 2017; cited from earlier work
hLiMTs = details: In vitro Assay; ref Proctor 2017; cited from earlier work
PHH spheroids = details: cited from earlier work
[8] = system: HepG2 C3A spheroid, BSEP, Glu/Gal in HepG2 cells, bioactivation; details: In vitro Assay; ref Williams 2019; cited from earlier work
[9] = system: THLE-Null and THLE-3A4 cells; details: In vitro Assay; ref Gustafsson 2014; cited from earlier work
[10] = system: HepG2 cells, primary human hepatocytes; details: In vitro Assay; ref Garside 2014; cited from earlier work
[11] = ref Chen 2011; cited from earlier work
rBsep = details: In vitro Assay; ref Dawson 2012; cited from earlier work
[12] = In vitro Assay, ref Tolosa 2012
[13] = assignment in Tolosa 2012, ref Tolosa 2012
[14] = In vitro Assay, ref O'Brien 2006

OC[C@H]1O[C@@H](O[C@H]2[C@H](O)[C@@H](O)C(O)O[C@@H]2CO)[C@H](O)[C@@H](O)[C@H]1O (mixture of isomers) [lactose]
Structural based (HCI) (HepG2 cells [1]): -VE
In vivo DILI ([2]; in vivo): -VE

O=[N+]([O-])c1ccc(O)c([N+](=O)[O-])c1 [2,4 dinitrophenol]
Structural based (HCI) (HepG2 cells [1]; [12]): +VE
In vivo DILI ([2]; ref Tolosa 2012): +VE

CC(=O)Nc1cccc(O)c1 [3-acetamidophenol]
Structural based (HCI) (HepG2 cells [1]; [12]): -VE
Structural based (HCI) (human hepatocytes): -VE
In vivo DILI ([2]; ref O'Brien 2006): -VE
In vivo DILI ([2]; ref Tolosa 2012): -VE
In vivo DILI ([2]; ref Xu 2008): -VE

C#C[C@]1(O)CC[C@H]2[C@@H]3CCc4cc(O)ccc4[C@H]3CC[C@@]21C [17-a ethynylestradiol]
Structural based (HCI) (HepG2 cells [1]): +VE

NCC[C@H](O)C(=O)N[C@@H]1C[C@H](N)[C@@H](O[C@H]2O[C@H](CN)[C@@H](O)[C@H](O)[C@H]2O)[C@H](O)[C@H]1O[C@H]1O[C@H](CO)[C@@H](O)[C@H](N)[C@H]1O [amikacin]
DILI +VE (5-8), DILI -VE (-4) ([3]; ref Chen 2016): -VE
DILI severity category ([3]; ref Chen 2016): vNo-DILI-Concern
Structural based (HCI) (HepG2 cells [1]; [12]): -VE
Partition Hybrid HRM Score ([4]; In vitro Assay, ref Aleo 2019): +VE
Ro2 Hybrid HRM Score ([4]; In vitro Assay, ref Aleo 2019): +VE
In vivo DILI ([2]; ref Aleo 2019): -VE
In vivo DILI ([2]; ref Tolosa 2012): +VE

CN1[C@@H]2CC[C@H]1C[C@@H](OC(=O)C(CO)c1ccccc1)C2 (stereo partly drawn) [atropine]
Structural based (HCI) (HepG2 cells [1]): +VE

CCN(CC)CCCC(C)Nc1ccnc2cc(Cl)ccc12 (stereo not drawn) [chloroquine]
DILI +VE (5-8), DILI -VE (-4) ([3]; in vivo): +VE
DILI severity category ([3]; in vivo): vLess-DILI-Concern
Structural based (HCI) (HepG2 cells [5]): +VE
Structural based (HCI) (HepG2 cells [1]): +VE
Ro2 Hybrid HRM Score [4]: +VE

CC(C)(OO)c1ccccc1 [cumene hydroperoxide]
Structural based (HCI) (HepG2 cells [1]; [12]): +VE
In vivo DILI ([2]; ref Tolosa 2012): +VE

C[C@@H]1C[C@@H]([C@H](O)CC2CC(=O)NC(=O)C2)C(=O)[C@@H](C)C1 [cycloheximide]
Structural based (HCI) (HepG2 cells [1]): +VE
In vivo DILI ([2]; in vivo): +VE

C[S+](C)[O-] [dimethyl dulfoxide]
Cluser analysis (HepG2 cells [6]): -VE
Structural based (HCI) (HepG2 cells [6]): -VE
Structural based (HCI) (HepG2 cells [1]; [12]): -VE
In vivo DILI ([2]; ref Persson 2013): -VE
In vivo DILI ([2]; ref Tolosa 2012): -VE

N[C@H]1C(O)O[C@H](CO)[C@H](O)[C@@H]1O (stereo partly drawn) [galactosamine]
Structural based (HCI) (HepG2 cells [1]; [12]): -VE
In vivo DILI ([2]; ref O'Brien 2006): +VE
In vivo DILI ([2]; ref Tolosa 2012): +VE

C[C@H](CCC(=O)NCC(=O)O)[C@H]1CC[C@H]2[C@@H]3[C@H](O)C[C@@H]4C[C@H](O)CC[C@]4(C)[C@H]3CC[C@]12C [glycochenodeoxycholate]
Structural based (HCI), In vitro Assay (HepG2 cells [1]; HepG2 HCI, ref Tolosa 2012): +VE
In vivo DILI [2, 13]: +VE

CC[C@H](C)C(=O)O[C@H]1C[C@@H](C)C=C2C=C[C@H](C)[C@H](CC[C@@H]3C[C@@H](O)CC(=O)O3)[C@H]21 [lovastatin]
Structural based (HCI) (HepG2 cells [5]; [14]): -VE
Structural based (HCI) (HepG2 cells [1]; [12]): +VE
Structural based (HCI) (human hepatocytes): -VE
in vitro data EC2<=1x Cmax [7]: -VE
in vitro data EC20<=2uM [7]: +VE

CCOC(=O)CC(SP(=S)(OC)OC)C(=O)OCC (stereo not drawn) [malathion]
Structural based (HCI), In vitro Assay (HepG2 cells [1]; HepG2 HCI, ref Tolosa 2012): +VE
In vivo DILI [2, 13]: +VE

CNCCCC12CCC(c3ccccc31)c1ccccc12 [maprotiline]
DILI +VE (5-8), DILI -VE (-4) ([3]; ref Chen 2016): -VE
DILI severity category ([3]; ref Chen 2016): Ambiguous DILI-concern
Structural based (HCI) (HepG2 cells [1]; [12]): +VE
Structural based (HCI) (human hepatocytes): -VE
Partition Hybrid HRM Score ([4]; In vitro Assay, ref Aleo 2019): +VE
Ro2 Hybrid HRM Score ([4]; In vitro Assay, ref Aleo 2019): +VE
In vivo DILI ([2]; […]): -VE
In vivo DILI ([2]; ref Tolosa 2012): +VE
In vivo DILI ([2]; ref Xu 2008): -VE

CC1=CC(=O)c2ccccc2C1=O [menadione]
Structural based (HCI) (HepG2 cells [5]; [14]): +VE (lowest HCI endpoint IC50 (or in the absence of dose–response < 100 µM) < 30 × total human plasma exposure levels (Cmax.tot))
Cluser analysis (HepG2 cells [6]): +VE
Structural based (HCI) (HepG2 cells [6]): +VE
Structural based (HCI) (HepG2 cells [1]; [12]): +VE
In vivo DILI ([2]; ref O'Brien 2006): -VE
In vivo DILI ([2]; ref Persson 2013): +VE
In vivo DILI ([2]; ref Tolosa 2012): +VE

[Cl][Hg][Cl] [mercury ii chloride]
Structural based (HCI), In vitro Assay (HepG2 cells [1]; HepG2 HCI, ref Tolosa 2012): +VE
In vivo DILI [2, 13]: +VE

CN(CCCC(=O)c1cccnc1)N=O [nnk]
Structural based (HCI), In vitro Assay (HepG2 cells [1]; HepG2 HCI, ref Tolosa 2012): +VE
In vivo DILI [2, 13]: +VE

C[n+]1ccc(-c2cc[n+](C)cc2)cc1 [paraquat]
Structural based (HCI), In vitro Assay (HepG2 cells [1]; HepG2 HCI, ref Tolosa 2012): +VE
In vivo DILI [2, 13]: +VE

Oc1c(Cl)c(Cl)c(Cl)c(Cl)c1Cl [pentachlorophenol]
Structural based (HCI) (HepG2 cells [1]): +VE
In vivo DILI ([2]; in vivo): +VE

CCCCOCCOCCOCc1cc2c(cc1CCC)OCO2 [piperonyl butoxide]
Structural based (HCI), In vitro Assay (HepG2 cells [1]; HepG2 HCI, ref Tolosa 2012): +VE
In vivo DILI [2, 13]: +VE

CCCC(CCC)C(=O)O [sodium valproate]
Structural based (HCI), In vitro Assay (HepG2 cells [1]; HepG2 HCI, ref Tolosa 2012): +VE

OC[C@@H](O)[C@@H](O)[C@H](O)[C@@H](O)CO [sorbitol]
DILI +VE (5-8), DILI -VE (-4) ([3]; ref Chen 2016): -VE
DILI severity category ([3]; ref Chen 2016): vNo-DILI-Concern
Structural based (HCI) (HepG2 cells [1]; [12]): -VE
Structural based (HCI) (human hepatocytes): -VE
In vivo DILI ([2]; ref O'Brien 2006): -VE
In vivo DILI ([2]; ref Tolosa 2012): -VE
In vivo DILI ([2]; ref Xu 2008): -VE

C[C@H](CCC(=O)NCCS(=O)(=O)O)[C@H]1CC[C@H]2[C@@H]3CC[C@@H]4C[C@H](O)CC[C@]4(C)[C@H]3CC[C@]12C [taurolithocholate]
Structural based (HCI), In vitro Assay (HepG2 cells [1]; HepG2 HCI, ref Tolosa 2012): +VE
In vivo DILI [2, 13]: +VE

CC(C)(C)OO [tert-butyl hydroperoxide]
Structural based (HCI), In vitro Assay (HepG2 cells [1]): +VE
In vivo DILI ([2]; in vivo): +VE

CC(=N)S [thioacetamide]
Structural based (HCI) (HepG2 cells [1]; [12]): -VE
Structural based (HCI) (human hepatocytes): -VE
In vivo DILI ([2]; ref O'Brien 2006): +VE
In vivo DILI ([2]; ref Tolosa 2012): +VE
In vivo DILI ([2]; ref Xu 2008): +VE

CCN(CC)CCOc1ccc2c(c1)C(=O)c1cc(OCCN(CC)CC)ccc1-2 [tilorone]
Structural based (HCI), In vitro Assay (HepG2 cells [1]; HepG2 HCI, ref Tolosa 2012): +VE
In vivo DILI [2, 13]: +VE

CC(c1cc2ccccc2s1)N(O)C(N)=O (stereo not drawn) [zileuton]
DILI +VE (5-8), DILI -VE (-4) ([3]; ref Chen 2016): +VE
DILI severity category ([3]; ref Chen 2016): vMost-DILI-Concern
Structural based (HCI) (HepG2 cells [5]; [14]): +VE
Cluser analysis (HepG2 cells [6]): -VE
Structural based (HCI) (HepG2 cells [6]): +VE
Structural based (HCI) (human hepatocytes): +VE
PHH ATP <100uM (PHH): -VE
hLiMTs ATP <100uM (hLiMTs): -VE
hLiMTs ATP <20 x Cmax (PHH spheroids; In vitro Assay, ref Vorrink 2018): -VE
Bayesian Machine Learning [8]: +VE
In vivo DILI ([2]; […]): +VE
In vivo DILI ([2]; ref Dawson 2012): +VE
In vivo DILI ([2]; ref Garside 2014): +VE
In vivo DILI ([2]; ref Gustafsson 2014): +VE
In vivo DILI ([2]; ref O'Brien 2006): +VE
In vivo DILI ([2]; ref Persson 2013): +VE
In vivo DILI ([2]; ref Proctor 2017): +VE
In vivo DILI ([2]; ref Vorrink 2018): +VE
In vivo DILI ([2]; ref Williams 2019): +VE
In vivo DILI ([2]; ref Xu 2008): +VE
THLE-Null [9]: -VE
THLE-Null/3A4 [9]: -VE
Cluster 1-6 +VE Assay [10]: -VE
DILI Score (FDA) (1-8) [11]: 5
Inhibition of rBsep cutoff<1& cmax u>.2 (rBsep): -VE
Inhibition of rBsep cutoff<3 (rBsep): -VE

aflatoxin b1
Structural based (HCI) (HepG2 cells [1]): +VE
hLiMTs ATP <20 x Cmax (PHH spheroids): +VE (key: +VE: IC20 < 20 × Cmax.tot cut-off)
In vivo DILI ([2]; in vivo): +VE

gentamycin
Structural based (HCI) (HepG2 cells [5]; [14]): +VE
Structural based (HCI) (HepG2 cells [1]; [12]): -VE
In vivo DILI ([2]; […]): -VE
In vivo DILI ([2]; ref O'Brien 2006): -VE
In vivo DILI ([2]; ref Porceddu 2012): +VE
In vivo DILI ([2]; ref Tolosa 2012): -VE
in vitro data EC2<=1x Cmax [7]: +VE
in vitro data EC20<=2uM [7]: +VE
